Tests used:
[1] = tested on: healthy brown Norway rats; assay: Mushroom spine formation in healthy rats after water maze training; type: in vivo; conditions: given during water maze training
From the text: Protocol: Non-diseased, healthy brown Norway rats (at 4-5 months old) were used in this study. Bryostatin enhanced the formation of mushroom spines in healthy rats after water maze training as shown in a-e. Memory retention after water maze training (4 swims per days for 5 days) increased the number of mushroom dendritic spine and synapses with (e) perforated postsynaptic densities (PSDs), but not with macular PSDs (d). […] Nv=naîve controls; Sw=swim controls; Mz=water maze treatment; and Mz/Br=water maze treatment plus bryostatin treatment.

[2] = Internal toxicity study: Clinical Chemistry Panel & Hematology Panel; type: in vivo
Protocol: Internal tests measuring various biological markers were performed 24 hours after administering a PKC activator (bryostatin, cyclopropanated arachidonic acid, DCPLA, and DHACP6) at 10× the therapeutic dose. The results are shown below in Tables 5-7.

[3] = Bryostatin levels in plasma and brain after intravenous injection; type: in vivo, mice
Protocol: Measurements of bryostatin were analyzed at different time points subsequent to administration of a high dose of bryostatin (114 μg/m2). […] The plasma/brain ratio can be greater than 30.
Protocol: Male C57BL/6M mice (15-20 g, Charles River) were acclimatized for 7-8 days in a non-enriched environment, three mice per cage. Bryostatin (Tocris) was dissolved in DMSO, diluted into 0.9% saline, and injected into the tail vein at doses of 10 and 15 μg/m2. After a fixed period, the mice were anesthetized with CO2 and the brain was frozen on dry ice. Blood was mixed with 0.2 ml 1 mM EDTA in PBS, centrifuged at 100 g for 30 min, and plasma was frozen on dry ice. In some experiments, blood lymphocyte fractions were collected using Ficoll-Paque Plus reagent using the procedure recommended by the manufacturer. All animal procedures were approved by the institutional IACUC.
Bryostatin was injected into the tail vein of C57BL/6N mice at 10 and 15 μg/m2 (equivalent to 3.50 and 5.25 μg/kg), and brain PKC-ε concentration was measured using Western blots. Brain PKC-ε activation was biphasic, peaking at 0.5 h and slowly declined toward resting levels, even though bryostatin levels continued to increase. This is consistent with the short-lived activation of PKC established previously. […] The bryostatin concentration at 0.5 h was 0.029 nM.

[4] = tested on: GSK-3β; assay: Phosphorylation of GSK-3β (Ser9) in hippocampus (Western Blot); type: in vivo, mice; conditions: 20 μg/m2 i.v., 2 doses/wk for 13 wk
[5] = tested on: monomeric Aβ(1-42); assay: Aβ peptide degradation by SH+hNEP cells; type: cell-based, human; conditions: 1 nM, 2.5 μg monomeric Aβ(1-42), 4 hours
Protocol: Protocol: Intact SH+hNEP cells were incubated with 2.5 μg of monomeric Aβ(1-42) for 4 hours in the absence or presence of bryostatin (Bryo, 1 nM). Some cells were cotreated with phosphoramidon (PA, 10 μM, a specific neprilysin inhibitor), Ro 32-0432 (Ro, 2 μM, a PKC inhibitor), or PA+Ro in the presence of bryostatin (1 nM) for 4 hours. Aβ peptide was then precipitated from the reactions by 20% trichloroacetic acid and immunoblotted with use of Aβ peptide 1-16 antibody (6E10). Arrow indicates the size of monomeric Aβ peptide (FIG. 18), which is around 4 kDa. Densitometry measurements of developed protein bands on Western blots were made and assigned as relative expression change (Mean+SEM of three independent experiments, **P<0.01, Bryo compared with untreated; #P<0.01, PA, Ro, or PA+Ro compared with Bryo.).

[6] = tested on: alpha-secretase; conditions: human fibroblasts; Etcheberrigaray et al. 2004; cited from earlier work
[7] = tested on: sAPP-α; assay: sAPP-α secretion in control cell lines; type: cell-based, human; conditions: 0.1 nM
[8] = tested on: mTBI mice; assay: Minimal traumatic brain injury, MWM cognitive test; type: in vivo; conditions: 5× i.p. over 14 days; for mTBI induced learning deficits (MWM): injured mice
Protocol: Protocol: One hour after the minimal traumatic brain injury was induced, the mice received a 5×i.p. bryostatin-1 injection treatment over a period of 14 days, in two injection doses 20 and 30 μg/kg (N=9 in each group). One hour after the last injection of the series, the cognitive ability of the mice was tested in the MWM. Mice were tested for 4 days 6 times a day. On day 5 the platform was removed and the mice memory retention was tested. […] Data was analyzed using repeated measure one way ANOVA and presented as mean±S.E.M. Both doses protected the learning abilities of the injured mice (pb0.01).

[9] = target: T1, PKC-α (Mus musculus, UniProt P20444); assay: PKC-α translocation by bryostatin in mouse brain (Western blot); type: in vivo; conditions: 30 and 120 minutes after administration
T1 construct: The effect of bryostatin on brain PKC translocation; from tissue; host or cells: brain of C57BL/6 mice
Protocol: Activation and translocation of PKC-ε were measured by Western blotting after subcellular fractionation into cytosol and particulate fractions. Homogenates were centrifuged at 100,000×g for 20 min and cytosolic and particulate fractions were separated on 4-20% Tris-glycine SDS polyacrylamide gels, blotted onto nitrocellulose, and probed with isozyme specific antibodies. The blots were photographed in a GE ImageQuant at 16 bits/pixel and analyzed by vertical strip densitometry using Imal Unix software.

[10] = tested on: HCN-2 cells; assay: Synaptogenesis in HCN-2 cells; type: cell-based, human; conditions: 10 days
Protocol: FIG. 9 illustrates that activation of PKC-ε induces synaptogenesis in HCN-2 cells. The HCN-2 cell line was derived from cortical tissue removed from a patient undergoing hemispherectomy for intractable seizures associated with Rasmussen's encephalitis. The cells were treated with either DCPLA-methyl ester or bryostatin-1 for 10 days. […] Thus, PKC-ε activation can induce synaptogenesis in both embryonic and adult neuronal cells.

[11] = i.v. 150 μg/m^2 = 10 × Therapeutic Dose, 24 hours, normalized to Control
[12] = i.v. 150 μg/m^2 = 10 × Therapeutic Dose, 24 hours, normalized to Normal

CCC/C=C/C=C/C(=O)O[C@H]1/C(=C/C(=O)OC)C[C@H]2C[C@H]([C@@H](C)O)OC(=O)C[C@H](O)C[C@@H]3C[C@H](OC(C)=O)C(C)(C)[C@](O)(C[C@@H]4C/C(=C/C(=O)OC)C[C@H](/C=C/C(C)(C)[C@]1(O)O2)O4)O3 [Bryostatin, bryostatin-1]
mushroom spines with macular PSDs [1]: significantly increased | mushroom spines with perforated PSDs [1]: enhanced | levels of biological markers as compared to normal levels (toxicity) ([2]; 24 hours after administering 10× the therapeutic dose, summary of Tables 5-7): did not demonstrate statistically significant differences in levels of biological markers as compared to normal levels | ALB (Albumin) [2, 11]: 91.1 ± 0.8 | ALP (Alkaline phosphatase) [2, 11]: 62.8 ± 10.0 | ALT (Alanine aminotransferase) [2, 11]: 63.6 ± 3.6 | AST (Aspartate aminotransferase) [2, 11]: 75.2 ± 11.3 | BUN (Blood urea nitrogen) [2, 11]: 117.0 ± 4.5 | CA (Calcium) [2, 11]: 89.2 ± 6.1 | CO2-LC (Bicarbonate) [2, 11]: 91.1 ± 4.2 | CREAT (Creatinine) [2, 11]: 80.7 ± 3.5 | GLU (Glucose) [2, 11]: 77.6 ± 8.4 | K (Potassium) [2, 11]: 101.0 ± 3.6 | NA (Sodium) [2, 11]: 94.1 ± 1.9 | TBILI (Total bilirubin) [2, 11]: 78.2 ± 13.0 | TPROT (Total protein) [2, 11]: 91.3 ± 2.8 | BA (Basophils) [2, 12]: 300.0 ± 200.0 | EO (Eosinophils) [2, 12]: 375.0 ± 250.0 | HCT (Hematocrit) [2, 12]: 97.3 ± 21.9 | Hb (Hemoglobin) [2, 12]: 83.4 ± 19.5 | LY (Lymphocytes) [2, 12]: 134.4 ± 55.1 | MCH (Mean corpuscular hemoglobin) [2, 12]: 86.7 ± 4.9 | MCHC (Mean corpuscular hemoglobin concentration) [2, 12]: 85.1 ± 2.8 | MCV (Mean corpuscular volume) [2, 12]: 101.8 ± 2.8 | MO (Monocytes) [2, 12]: 133.3 ± 50.0 | MPV (Mean platelet volume) [2, 12]: 96.2 ± 2.4 | NE (Neutrophils) [2, 12]: 144.8 ± 55.1 | PLT (Platelet count) [2, 12]: 109.4 ± 43.9 | RBC (Red Blood Cells) [2, 12]: 95.3 ± 20.0 | RDW (Red cell distribution width) [2, 12]: 106.8 ± 6.2 | WBC (White blood cells) [2, 12]: 142.3 ± 57.3 | brain bryostatin relative to PKC downregulation ([3]; FIG. 2, brain versus plasma): below PKC downregulation | plasma/brain ratio ([3]; single intravenous injection, 114 μg/m2, mice): greater than 30 | half-life in the brain as compared to plasma ([3]; single intravenous injection, high dose 114 μg/m2, mice): extremely long half-life in the brain as compared to in plasma | bryostatin concentration at 0.5 h ([3]; tail vein 10 and 15 μg/m2, C57BL/6N mice, 0.5 h): 0.029 nM | phosphorylation of GSK-3β (Ser9) in the hippocampus of fragile X mice [4]: increases phosphorylation of GSK-3β | Aβ peptide degradation [5]: induces Aβ peptide degradation through neprilysin activation | activation of alpha-secretase (sAPP generation) [6]: activate the alpha-secretase | sAPP-α secretion in two control cell lines [7]: effective in enhancing secretion in two control cell lines, although to a lesser extent than in the AD cell line | acquisition of the learning task, mTBI group versus control mice ([8]; 20 μg/kg): improved their acquisition of the learning task even beyond that of control mice | learning of control uninjured mice ([8]; 20 μg/kg): no effect on uninjured mice | mTBI induced learning deficits (MWM) ([8]; 20 μg/kg): protected against the mTBI induced learning deficits | learning of control uninjured mice ([8]; 30 μg/kg): improved the learning of control uninjured mice | mTBI induced learning deficits (MWM) ([8]; 30 μg/kg): protected against the mTBI induced learning deficits | PKC-α translocation in mouse brain [9]: translocation was only observed by PKC-ε | differentiation, neuronal branching and punctate colocalization of PSD-95 and synaptophysin [10]: significant differentiation with neuronal branching and increased punctate colocalization of PSD-95 and synaptophysin
